We go through 19 molecules from BindingDB's records for doi:10.1016/s0960-894x(03)00532-8 (British Biotech Pharmaceuticals, 2003).

Structures are written as SMILES. Bounds are passed on as bounds.

Peptide deformylase (Escherichia coli), sequence (P0A6K3 whole entry, looked up): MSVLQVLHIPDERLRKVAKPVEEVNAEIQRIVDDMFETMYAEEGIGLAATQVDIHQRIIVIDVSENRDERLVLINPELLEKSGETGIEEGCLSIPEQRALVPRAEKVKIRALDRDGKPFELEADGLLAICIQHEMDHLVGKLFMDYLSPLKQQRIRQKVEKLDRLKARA

This assay concerns the target Peptide deformylase (Escherichia coli) (UniProt P0A6K3). Nature of the assay: Inhibition against Escherichia coli peptide deformylase.
As usually defined, the IC50 is the concentration that gives 50% inhibition. The molecule `CCCCCCC[C@H](CN(O)C=O)C(=O)N[C@H](C(=O)N(C)C)C(C)(C)C` [(R)-2-[(Formyl-hydroxy-amino)-methyl]-nonanoic acid ((S)-1-dimethylcarbamoyl-2,2-dimethyl-propyl)-amide] returned an IC50 of 0.04 µM.
As to `CN(C)C(=O)[C@@H](NC(=O)[C@@H](CN(O)C=O)CN1CCCCC1)C(C)(C)C` [(S)-2-{(R)-2-[(Formyl-hydroxy-amino)-methyl]-3-piperidin-1-yl-propionylamino}-3,3,N,N-tetramethyl-butyramide], the IC50 was more than 1 µM.
For the molecule `CCC[C@H](CN(O)C=O)C(=O)N[C@H](C(=O)N(C)C)C(C)(C)C` [(R)-2-[(Formyl-hydroxy-amino)-methyl]-pentanoic acid ((S)-1-dimethylcarbamoyl-2,2-dimethyl-propyl)-amide], the midpoint of inhibition, the IC50, lay at 0.05 µM.
As for `CCCCCCCC[C@H](CN(O)C=O)C(=O)N[C@H](C(=O)N(C)C)C(C)(C)C` [(R)-2-[(Formyl-hydroxy-amino)-methyl]-decanoic acid [1-((S)-dimethyl-carbamoyl)-2,2-dimethyl-propyl]-amide], the IC50 is 0.05 µM.
Molecule `CCCCC[C@H](CN(O)C=O)C(=O)N[C@H](C(=O)N(C)C)C(C)(C)C` [(R)-2-[(Formyl-hydroxy-amino)-methyl]-heptanoic acid ((S)-1-dimethylcarbamoyl-2,2-dimethyl-propyl)-amide] registered an IC50 of 0.01 µM.
In the case of `CC(C)CC[C@H](CN(O)C=O)C(=O)N[C@H](C(=O)N(C)C)C(C)(C)C` [(R)-2-[(Formyl-hydroxy-amino)-methyl]-5-methyl-hexanoic acid ((S)-1-dimethylcarbamoyl-2,2-dimethyl-propyl)-amide], the IC50 is 0.02 µM.
On to `CC(C)[C@H](CN(O)C=O)C(=O)N[C@H](C(=O)N(C)C)C(C)(C)C` [(R)-N-((S)-1-Dimethylcarbamoyl-2,2-dimethyl-propyl)-2-[(formyl-hydroxy-amino)-methyl]-3-methyl-butyramide], for which half-maximal inhibition (IC50) required 0.05 µM.
`CN(C)C(=O)[C@@H](NC(=O)[C@H](Cc1ccccc1)CN(O)C=O)C(C)(C)C` [(S)-2-[(R)-2-Benzyl-3-(formyl-hydroxy-amino)-propionylamino]-3,3,N,N-tetramethyl-butyramide] displayed an IC50 of 0.02 µM.
Molecule `CN(C)C(=O)[C@@H](NC(=O)[C@@H](CN(O)C=O)C1CCCC1)C(C)(C)C` [(S)-2-[(R)-2-Cyclopentyl-3-(formyl-hydroxy-amino)-propionylamino]-3,3,N,N-tetramethyl-butyramide] gave a concentration for half-maximal inhibition (IC50) of 0.02 µM.
For the molecule `CN(C)C(=O)[C@@H](NC(=O)[C@H](CC1CCCCC1)CN(O)C=O)C(C)(C)C` [(S)-2-[(R)-2-Cyclohexylmethyl-3-(formyl-hydroxy-amino)-propionylamino]-3,3,N,N-tetramethyl-butyramide], inhibition was half-maximal at 0.006 µM (IC50).
With `C=CCC[C@H](CN(O)C=O)C(=O)N[C@H](C(=O)N(C)C)C(C)(C)C` [(R)-2-[(Formyl-hydroxy-amino)-methyl]-hex-5-enoic acid ((S)-1-dimethylcarbamoyl-2,2-dimethyl-propyl)-amide] the figure was 0.02 µM; with `CC[C@H](CN(O)C=O)C(=O)N[C@H](C(=O)N(C)C)C(C)(C)C` [(S)-2-{(R)-2-[(Formyl-hydroxy-amino)-methyl]-butyrylamino}-3,3,N,N-tetramethyl-butyramide], 0.07 µM; with `CCSC[C@H](CN(O)C=O)C(=O)N[C@H](C(=O)N(C)C)C(C)(C)C` [(S)-2-[(R)-2-Ethylsulfanylmethyl-3-(formyl-hydroxy-amino)-propionylamino]-3,3,N,N-tetramethyl-butyramide], 0.02 µM.
The molecule `CCCCCC[C@H](CN(O)C=O)C(=O)N[C@H](C(=O)N(C)C)C(C)(C)C` [(R)-2-[(Formyl-hydroxy-amino)-methyl]-octanoic acid ((S)-1-dimethylcarbamoyl-2,2-dimethyl-propyl)-amide] registered an IC50 of 0.03 µM.
The molecule `CC(C)C[C@H](CN(O)C=O)C(=O)N[C@H](C(=O)N(C)C)C(C)(C)C` [(R)-2-[(Formyl-hydroxy-amino)-methyl]-4-methyl-pentanoic acid ((S)-1-dimethylcarbamoyl-2,2-dimethyl-propyl)-amide] had a half-maximal inhibitory concentration (IC50) of 0.01 µM.
The result for `CCCC[C@@H](C(=O)N[C@H](C(=O)N(C)C)C(C)(C)C)C(C)N(O)C=O` (stereo partly drawn) [(R)-2-[1-(Formyl-hydroxy-amino)-ethyl]-hexanoic acid ((S)-1-dimethylcarbamoyl-2,2-dimethyl-propyl)-amide] reads 0.6 µM; that for `C=CC[C@H](CN(O)C=O)C(=O)N[C@H](C(=O)N(C)C)C(C)(C)C` [(R)-2-[(Formyl-hydroxy-amino)-methyl]-pent-4-enoic acid ((S)-1-dimethylcarbamoyl-2,2-dimethyl-propyl)-amide], 0.03 µM.
With `C[C@H](CN(O)C=O)C(=O)N[C@H](C(=O)N(C)C)C(C)(C)C` [(S)-2-[(R)-3-(Formyl-hydroxy-amino)-2-methyl-propionylamino]-3,3,N,N-tetramethyl-butyramide] the figure was 0.1 µM.
Regarding `CC#CC[C@H](CN(O)C=O)C(=O)N[C@H](C(=O)N(C)C)C(C)(C)C` [(R)-2-[(Formyl-hydroxy-amino)-methyl]-hex-4-ynoic acid ((S)-1-dimethylcarbamoyl-2,2-dimethyl-propyl)-amide], the IC50 was found to be 0.03 µM.
